# Laboratory results published in US20230303572A1, “18-MC SALT FORMS” (Mind Medicine, Inc., priority 2022, published 2023).
# Structures can show the parent of a compound that is named as a salt. Marks after values point to notes of the source that are not given here.
# Experiments:
# Format in all cases: physicochemical
# [1] = Heating experiments and VT-XRPD (N2 drying, heating, cooling back): form change; details: for form change after N2 drying (VT-XRPD): N2-drying for 20 min at 30° C.; for form change after heating (XRPD/VT-XRPD): heating to 100° C.
# Source text: (§1) For XRPD analysis, a PANalytical Empyrean and X′ Pert3 X-ray powder diffract meter was used.
# [2] = Approximate solubility estimated by stepwise solvent addition (RT and 50° C.)
# Method: Approximate solubility values of sulfate Type A (824511-04-A) were estimated in 10 solvents to guide the solvent selection in the polymorph screening, with results summarized in TABLE 16B.
# Approximate solubility of oxalate Type B (824511-04-C) was estimated in 10 solvents to guide the solvent selection in polymorph screening of oxalate, and the results were summarized in TABLE 19C.
# Procedure: weigh ~2 mg solids into each 3-mL glass vial, add in corresponding solvent stepwise and sonicate or oscillate to see if solids dissolved completely. Stop adding solvent till the solids dissolves or total volume reaches 1.0 mL. Calculate the approximate solubility based on solvent volume.
# The approximate solubility of mesylate Type A (824511-23-B) was estimated in 10 solvents to guide the solvent selection in polymorph screening of the mesylate, with results summarized in TABLE 22C.
# Approximate solubility of HBr salt Type A (824511-29-B) was estimated in 10 solvents to guide the solvent selection in polymorph screening of HBr salt, with data summarized in TABLE 25B.
# Approximate solubility of tosylate Type B (824511-23-A-0628) was estimated in 40 solvents to guide the solvent selection in polymorph screening of tosylate, with data summarized in TABLE 27B.
# Approximate solubility of besylate Type B (824511-44-C2) was estimated in 38 solvents to guide the solvent selection in polymorph screening of besylate, with results shown in TABLE 31.
# [3] = Physical form stability on storage at RT, air drying or exposure to ambient conditions (XRPD); details: for form conversion, summary statement: after air drying or RT storage, duration not stated
# Source text: as §1
smiles,measurement,setting,value
"COCC[C@H]1CC2CN3CCc4c([nH]c5ccccc45)[C@](C(=O)OC)(C2)[C@H]13 [besylate Type B, 18-methoxycoronaridine]",form change after N2 drying (VT-XRPD),[1],no obvious form change
same,form change after heating (XRPD/VT-XRPD),[1],no obvious form change
"COCC[C@H]1CC2CN3CCc4c([nH]c5ccccc45)[C@](C(=O)OC)(C2)[C@H]13 [HCl salt Type H, 18-methoxycoronaridine]",Form change after treatment,"[1]; Heat to 165~170° C. under N2, XRPD form",Freebase Type A+extra peak*
same,Form after heating,"[1]; solid form by XRPD after heating, cells marked *, **, # have footnotes that are not shown",Freebase Type A+extra peak
"COCC[C@H]1CC2CN3CCc4c([nH]c5ccccc45)[C@](C(=O)OC)(C2)[C@H]13 [HBr salt Type A, 18-methoxycoronaridine]",Solubility (mg/mL),[2]; approximate solubility in ACN at RT,S<2.1 * mg/mL
same,Solubility (mg/mL),[2]; approximate solubility in CHCl3 at RT,S<2.1 * mg/mL
same,Solubility (mg/mL),[2]; approximate solubility in DCM at RT,S<2.1 * mg/mL
same,Solubility (mg/mL),[2]; approximate solubility in EtOAc at RT,S<2.1 mg/mL
same,Solubility (mg/mL),[2]; approximate solubility in H2O at RT,S<2.1 mg/mL
same,Solubility (mg/mL),[2]; approximate solubility in MeOH at RT,S>42.0 mg/mL
same,Solubility (mg/mL),[2]; approximate solubility in THF at RT,S<2.0 mg/mL
same,Solubility (mg/mL),[2]; approximate solubility in n-Heptane at RT,S<2.0 mg/mL
same,form change after drying or heating (VT-XRPD),[1]; drying or heating under N2 to higher temperatures and cooling back to RT,no form change
"COCC[C@H]1CC2CN3CCc4c([nH]c5ccccc45)[C@](C(=O)OC)(C2)[C@H]13 [sulfate Type B, 18-methoxycoronaridine]","form conversion, summary statement",[3],converted to sulfate Type E
same,form change after storage (XRPD),[3]; storage at RT in a sealed vial for ~12 days,form change to sulfate Type E
"COCC[C@H]1CC2CN3CCc4c([nH]c5ccccc45)[C@](C(=O)OC)(C2)[C@H]13 [sulfate Type D, 18-methoxycoronaridine]",form change after N2 drying (VT-XRPD),[1],a new form was observed and assigned as sulfate Type F
"COCC[C@H]1CC2CN3CCc4c([nH]c5ccccc45)[C@](C(=O)OC)(C2)[C@H]13 [HCl salt Type V, 18-methoxycoronaridine]",Form after treatment,"[3]; Air drying, metastable forms",HCl salt Type A**
same,"form conversion, summary statement",[3],converted to HCl salt Type A
same,form change after air drying (XRPD),[3]; air drying for ~3 hours,converted to HCl salt Type A completely
"COCC[C@H]1CC2CN3CCc4c([nH]c5ccccc45)[C@](C(=O)OC)(C2)[C@H]13 [HCl salt Type A+L, 18-methoxycoronaridine]",form change after storage (XRPD),[3]; storage at RT for ~22 days,converted to HCl salt Type A completely
"COCC[C@H]1CC2CN3CCc4c([nH]c5ccccc45)[C@](C(=O)OC)(C2)[C@H]13 [mesylate Type B, 18-methoxycoronaridine]",physical stability at ambient conditions,"[3]; ambient conditions, time not stated",not found to be physically stable at ambient conditions and easily converted to gels/oils
same,Speculated form (physical stability),[3]; the solid turn to gel-like after air drying at RT in a few minutes,Metastable*
"COCC[C@H]1CC2CN3CCc4c([nH]c5ccccc45)[C@](C(=O)OC)(C2)[C@H]13 [tosylate Type G, 18-methoxycoronaridine]",form change after heating (XRPD),[1]; heating to 80° C. and cooling back to RT,no form change
same,form change after heating (XRPD),[1]; heating to 90° C.,crystallinity of the sample decreased significantly
same,form change after heating (XRPD/VT-XRPD),[1],amorphous was obtained
COCCC1CC2CN3CCc4c([nH]c5ccccc45)C(C(=O)OC)(C2)C13.O=S(=O)(O)c1ccccc1 (stereo not shown) [besylate Type B (824511-44-C2)],Approximate solubility,"[2]; 50° C., solvent 2-MeTHF, *: little solids in the vial",S<1.9* mg/mL
same,Approximate solubility,"[2]; 50° C., solvent Toluene",S<1.9 mg/mL
same,Approximate solubility,"[2]; 50° C., solvent n-Heptane",S<2.0 mg/mL
same,Approximate solubility,"[2]; RT, solvent 2-MeTHF",S<1.9 mg/mL
same,Approximate solubility,"[2]; RT, solvent ACN",S>40.0 mg/mL
same,Approximate solubility,"[2]; RT, solvent ACN/H2O (1:2, aw 0.9), *: little solids in the vial",S<1.9* mg/mL
same,Approximate solubility,"[2]; RT, solvent CHCl3",S>40.0 mg/mL
same,Approximate solubility,"[2]; RT, solvent DCM",S>40.0 mg/mL
same,Approximate solubility,"[2]; RT, solvent EtOAc",S<2.0 mg/mL
same,Approximate solubility,"[2]; RT, solvent H2O",S<2.0 mg/mL
same,Approximate solubility,"[2]; RT, solvent IPA/H2O (847:153, aw 0.8)",S>40.0 mg/mL
same,Approximate solubility,"[2]; RT, solvent MeOH",S>44.0 mg/mL
same,Approximate solubility,"[2]; RT, solvent THF/H2O (87:13, aW 0.8)",S>42.0 mg/mL
same,Approximate solubility,"[2]; RT, solvent THF/H2O (981:19, aw 0.2)",S>40.0 mg/mL
same,Approximate solubility,"[2]; RT, solvent n-Heptane",S<2.0 mg/mL
